Consider 31 compounds from article PMC3895407 (Journal of medicinal chemistry, 2013).

The conditions of series [1]: relative to lead compound 3.
Series [2] in a line: in vitro.
Series [3] has as its system Fort Morgan virus (FMV). To be noted: 25 µM.
The nature of series [4]: in vitro. To be noted: PAMPA, pH 7.4. On the technique in general: The PAMPA barrier holds no transporters, so it reflects passive diffusion.
In series [5] the test system is western equine encephalitis virus (WEEV). To be noted: cited from earlier work.
For another series, the system named is WEEV replicon. It is filed as cell-based, western equine encephalitis virus.
Series [6] deals with Fort Morgan virus (FMV). It is filed as cell-based.
For series [7] the following is noted: Table 3; BBB lipid mixture, pH 7.4.
In series [8] the test system is western equine encephalitis virus (WEEV). To be noted: 25 µM.
The subject of series [9] is cell viability (cellular reduction of MTT).

As usually defined, the Papp is a coefficient for how fast a substance crosses the barrier. A higher Papp goes with fast passage. As a reminder, the IC50 is the point on the concentration scale where inhibition reaches its midpoint.

Marks after values point to notes of the source that are not given here.

`O=C(NCCc1ccncc1)C1CCN(C(=O)c2cc3ccccc3n2Cc2ccccc2)CC1` [29f, 1-(1-Benzyl-1H-indole-2-carbonyl)-N-(2-(pyridin-4-yl)ethyl)piperidine-4-carboxamide]: the “Fold increase in half-life in mouse liver microsomes” value in [1] was 20-35 fold. `Cn1c(C(=O)N2CCC(C(=O)NCCc3ccncc3)CC2)cc2ccccc21` [29e, 1-(1-Methyl-1H-indole-2-carbonyl)-N-(2-(pyridin-4-yl)ethyl)piperidine-4-carboxamide] showed a CC50 in “in vitro [2]” above 50 µM. For `C[C@@H](NC(=O)C1CCN(C(=O)c2cc3ccccc3n2Cc2ccc(Cl)cc2)CC1)c1ccccc1` [compound 3], in the series on Fort Morgan virus (FMV) [3], the “FMV Viability (% uninfected control)” value was 47.4 ± 8.0 % uninfected control. In “in vitro [4]”, this compound gave a Papp of 0.302 ×10⁻⁶ cm/s. Besides, in [5], the “WEEV Titer” value is listed as 8.8 ± 1.0* x10^6 pfu/mL. The same compound displayed a CC50 in “in vitro [2]” above 100 µM. As to `CC(NC(=O)C1CCN(C(=O)c2cc3ccccc3n2Cc2ccc(Cl)cc2)CC1)c1ccncc1` (stereo not drawn) [27a, 1-(1-(4-Chlorobenzyl)-1H-indole-2-carbonyl)-N-(1-(pyridin-4-yl)ethyl)piperidine-4-carboxamide], the “FMV Viability (% uninfected control)” value in the series on Fort Morgan virus (FMV) [3] came to 68.2 ± 2.4 % uninfected control. The same compound showed a Papp in “in vitro [4]” of 102 ×10⁻⁶ cm/s. In the series on WEEV replicon, the “Fold improvement of activity in WEEV replicon assay” value was “about 3 fold”. Also, in the series on Fort Morgan virus (FMV) [6], the “Reduction of viral titers compared with 3” value (from here on “Reduction of viral titers”) is “approximately ten-fold more than 3”. In the series “in vitro [4]”, `CN(Cc1ccccc1)C(=O)C1CCN(C(=O)c2cc3ccccc3n2Cc2ccc(C#N)cc2)CC1` [28c, N-Benzyl-1-(1-(4-cyanobenzyl)-1H-indole-2-carbonyl)-N-methylpiperidine-4-carboxamide] gave a Papp of 53.7 ×10⁻⁶ cm/s. The compound also came in with a CC50 in the series “in vitro [2]” above 100 µM. In the same order, the values of `O=C(NCCc1ccncc1)C1CCN(C(=O)c2nccn2Cc2ccc(Cl)cc2)CC1` [29b, 1-(1-(4-Chlorobenzyl)-1H-imidazole-2-carbonyl)-N-(2-(pyridin-4-yl)ethyl)piperidine-4-carboxamide] are 8.71 ×10⁻⁶ cm/s and above 50 µM. Compound `C[C@@H](NC(=O)C1CCN(C(=O)c2cc3ccccc3n2Cc2ccc(Cl)cc2)CC1)c1ccncc1` [27b, (R)-1-(1-(4-Chlorobenzyl)-1H-indole-2-carbonyl)-N-(1-(pyridin-4-yl)ethyl)piperidine-4-carboxamide] gave a Papp in the series “in vitro [4]” of 95.5 ×10⁻⁶ cm/s. Turning to `Cn1ccc(CNC(=O)C2CCN(C(=O)c3cc4ccccc4n3Cc3ccc(Cl)cc3)CC2)n1` [27e, 1-(1-(4-Chlorobenzyl)-1H-indole-2-carbonyl)-N-((1-methyl-1H-pyrazol-3-yl)methyl)piperidine-4-carboxamide], the CC50 in “in vitro [2]” was above 100 µM. Compound `CN(C)C(=O)C1CCN(C(=O)c2cc3ccccc3n2Cc2ccc(Cl)cc2)CC1` [27v, 1-(1-(4-Chlorobenzyl)-1H-indole-2-carbonyl)-N,N-dimethylpiperidine-4-carboxamide] gave a Papp in “in vitro [4]” of 64.6 ×10⁻⁶ cm/s. In the series “in vitro [2]”, this compound had a CC50 above 100 µM.

Turning to `O=C(NCCc1ccncc1)C1CCN(C(=O)c2cc3ccc(F)cc3n2Cc2ccc(Cl)cc2)CC1` [29h, 1-(1-(4-Chlorobenzyl)-6-fluoro-1H-indole-2-carbonyl)-N-(2-(pyridin-4-yl)ethyl)piperidine-4-carboxamide], the “Reduction of viral titers” value in the series on Fort Morgan virus (FMV) [6] is “approximately ten-fold more than 3”.

Take `O=C(NCCc1ccncc1)C1CCN(C(=O)c2cc3ccncc3n2Cc2ccc(Cl)cc2)CC1` [29j, 1-(1-(4-Chlorobenzyl)-1H-pyrrolo[2,3-c]pyridine-2-carbonyl)-N-(2-(pyridin-4-yl)ethyl)piperidine-4-carboxamide]: the Papp in “in vitro [4]” was 3.02 ×10⁻⁶ cm/s. As for `O=C(NCc1cccnc1)C1CCN(C(=O)c2cc3ccccc3n2Cc2ccc(Cl)cc2)CC1` [compound 5], in the series with WEEV replicon, the “Fold loss in activity in WEEV replicon assay” value amounted to 2 fold. For `O=C(NCCc1ccncc1)C1CCN(C(=O)c2cc(F)cn2Cc2ccc(Cl)cc2)CC1` [29k, 1-(1-(4-Chlorobenzyl)-4-fluoro-1H-pyrrole-2-carbonyl)-N-(2-(pyridin-4-yl)ethyl)piperidine-4-carboxamide], the Papp in the series “in vitro [4]” was 12.6 ×10⁻⁶ cm/s. In the case of `O=C(NCCCc1ccncc1)C1CCN(C(=O)c2cc3ccccc3n2Cc2ccc(Cl)cc2)CC1` [27j, 1-(1-(4-Chlorobenzyl)-1H-indole-2-carbonyl)-N-(3-(pyridin-4-yl)propyl)piperidine-4-carboxamide], the Papp in the series “in vitro [4]” was 77.6 ×10⁻⁶ cm/s. The “Fold decrease in potency in WEEV replicon assay” value in the series with WEEV replicon was 5 fold. With `O=C(NCCc1ccncc1)C1CCN(C(=O)c2nc3ccccc3n2Cc2ccc(Cl)cc2)CC1` [29c, 1-(1-(4-Chlorobenzyl)-1H-benzo[d]imidazole-2-carbonyl)-N-(2-(pyridin-4-yl)ethyl)piperidine-4-carboxamide], the “Fold increase in half-life in mouse liver microsomes” value in [1] is on record as 20-35 fold. In “in vitro [4]”, this compound showed a Papp of 31.6 ×10⁻⁶ cm/s.

Take `Cn1cnc(CNC(=O)C2CCN(C(=O)c3cc4ccccc4n3Cc3ccc(Cl)cc3)CC2)c1` [27f, 1-(1-(4-Chlorobenzyl)-1H-indole-2-carbonyl)-N-((1-methyl-1H-imidazol-4-yl)methyl)piperidine-4-carboxamide]: the CC50 in the series “in vitro [2]” was above 50 µM. The compound `CN1CCC(CNC(=O)C2CCN(C(=O)c3cc4ccccc4n3Cc3ccc(Cl)cc3)CC2)CC1` [27d, 1-(1-(4-Chlorobenzyl)-1H-indole-2-carbonyl)-N-((1-methylpiperidin-4-yl)methyl)piperidine-4-carboxamide] came in with a CC50 in “in vitro [2]” above 50 µM. `COc1cccc(CCNC(=O)C2CCN(C(=O)c3cc4ccccc4n3Cc3ccc(Cl)cc3)CC2)c1` [27p, 1-(1-(4-Chlorobenzyl)-1H-indole-2-carbonyl)-N-(3-methoxyphenethyl)piperidine-4-carboxamide] came in with a CC50 in the series “in vitro [2]” above 100 µM. Compound `COCCn1c(C(=O)N2CCC(C(=O)N(C)Cc3ccccc3)CC2)cc2ccccc21` [28f, N-Benzyl-1-(1-(2-methoxyethyl)-1H-indole-2-carbonyl)-N-methylpiperidine-4-carboxamide] had a Papp in “in vitro [4]” of 40.7 ×10⁻⁶ cm/s. This compound came in with a CC50 in “in vitro [2]” above 50 µM.

For `O=C(NCCc1ccncc1)C1CCN(C(=O)c2cccn2Cc2ccc(Cl)cc2)CC1` [29a, 1-(1-(4-Chlorobenzyl)-1H-pyrrole-2-carbonyl)-N-(2-(pyridin-4-yl)ethyl)piperidine-4-carboxamide], the “FMV Viability (% uninfected control)” value with Fort Morgan virus (FMV) [3] stood at 63.0 ± 5.9 % uninfected control. For the same compound, the Papp in the series “in vitro [4]” was 9.77 ×10⁻⁶ cm/s. Further, in the series “in vitro [2]”, the CC50 is above 100 µM. For `O=C(NCCc1ccncc1)C1CCN(C(=O)c2cc3ccccc3n2Cc2ccc(Cl)cc2)CC1` [27g, 1-(1-(4-Chlorobenzyl)-1H-indole-2-carbonyl)-N-(2-(pyridin-4-yl)ethyl)piperidine-4-carboxamide], in the series on Fort Morgan virus (FMV) [3], the “FMV Viability (% uninfected control)” value is 71.9 ± 1.9 % uninfected control. Besides, the Papp in “in vitro [4]” is 66.1 ×10⁻⁶ cm/s. Moreover, the “Fold increase in potency in WEEV replicon assay” value in the series on WEEV replicon worked out at 10 fold. For the same compound, in series [7], the “BBB-PAMPA (log Peff)” value was -4.18 ± 0.06 cm/s. In addition, in the series with Fort Morgan virus (FMV) [6], the “Reduction of viral titers” value is listed as “approximately ten-fold more than 3”. Compound `CN(CCc1ccncc1)C(=O)C1CCN(C(=O)c2cc3ccccc3n2Cc2ccc(Cl)cc2)CC1` [27m, 1-(1-(4-Chlorobenzyl)-1H-indole-2-carbonyl)-N-methyl-N-(2-(pyridin-4-yl)ethyl)piperidine-4-carboxamide] showed a Papp in the series “in vitro [4]” of 61.7 ×10⁻⁶ cm/s. The “Fold diminished potency in WEEV replicon assay” value in the series with WEEV replicon amounted to 3 fold. In the case of `NC(=O)c1ncn([C@@H]2O[C@H](CO)[C@@H](O)[C@H]2O)n1` [Ribavirin], the “WEEV Viability (% uninfected control)” value in series [8] is listed as 35.3 ± 1.0 % uninfected control. In “in vitro [4]”, `CC(=O)n1c(C(=O)N2CCC(C(=O)N(C)Cc3ccccc3)CC2)cc2ccccc21` [28e, 1-(1-Acetyl-1H-indole-2-carbonyl)-N-benzyl-N-methylpiperidine-4-carboxamide] gave a Papp of 9.77 ×10⁻⁶ cm/s. Further, the CC50 in the series “in vitro [2]” was above 50 µM. The compound `CN(Cc1ccccc1)C(=O)C1CCN(C(=O)c2cc3ccccc3n2Cc2ccc([N+](=O)[O-])cc2)CC1` [28b, N-Benzyl-N-methyl-1-(1-(4-nitrobenzyl)-1H-indole-2-carbonyl)piperidine-4-carboxamide] registered a CC50 in the series “in vitro [2]” above 100 µM. Take `O=C(NCCc1ccncc1)C1CCN(C(=O)c2cc3cc(F)ccc3n2Cc2ccc(Cl)cc2)CC1` [29i, 1-(1-(4-Chlorobenzyl)-5-fluoro-1H-indole-2-carbonyl)-N-(2-(pyridin-4-yl)ethyl)piperidine-4-carboxamide]: the apparent permeability coefficient (Papp) in “in vitro [4]” is 77.6 ×10⁻⁶ cm/s. Compound `O=C(c1cc2ccccc2n1Cc1ccc(Cl)cc1)N1CCC(C(=O)N2CCOCC2)CC1` [27x, (1-(4-Chlorobenzyl)-1H-indol-2-yl)(4-(morpholine-4-carbonyl)piperidin-1-yl)methanone] gave a CC50 in “in vitro [2]” above 100 µM. `O=C(NCc1ccncc1)C1CCN(C(=O)c2cc3ccccc3n2Cc2ccc(Cl)cc2)CC1` [compound 4] showed a Papp in the series “in vitro [4]” of 69.2 ×10⁻⁶ cm/s. The same compound showed a CC50 in “in vitro [2]” above 100 µM.

Consider “1-(1-(4-Chlorobenzyl)-1H-indole-2-carbonyl)-N-(2-methyl-2-(pyridin-4-yl)propyl)piperidine-4-carboxamide [27l]”, for which the 50% inhibitory concentration (IC50) in the series on WEEV replicon (read-out: IC50 (inhibition of luciferase expression in WEEV replicon assay)) came out at 19.3 ± 21 µM. Besides, in series [9], the CC50 was 43.6 µM. Compound `O=C(NCCc1ccncc1)C1CCN(C(=O)NCCc2ccc(Cl)cc2)CC1` [29d, N1-(4-Chlorophenethyl)-N4-(2-(pyridin-4-yl)ethyl)piperidine-1,4-dicarboxamide] showed a Papp in “in vitro [4]” of 14.1 ×10⁻⁶ cm/s. In “in vitro [2]”, this compound returned a CC50 above 100 µM. Consider `O=C(NCCn1ccnc1)C1CCN(C(=O)c2cc3ccccc3n2Cc2ccc(Cl)cc2)CC1` [27o, N-(2-(1H-Imidazol-1-yl)ethyl)-1-(1-(4-chlorobenzyl)-1H-indole-2-carbonyl)piperidine-4-carboxamide], for which, in “in vitro [4]”, the Papp is 1.74 ×10⁻⁶ cm/s.
